Columns and labels:
NE [1] = assay: NE activity in blood and bone marrow of mice; type: in vivo, C57BL/6 mice; details: 30 mg/kg daily gavage, 7 days
Description: A total of 25 C57BL/6 mice (6–8 weeks old, weighing approximately 20 g, with equal numbers of males and females) were randomly divided into five groups. Mice in the compound-treated groups were orally administered the compound once daily at doses of 0.3, 3, and 30 mg/kg for 7 consecutive days. […] Mice in the normal group were given an equal volume of normal saline at the same time points. The body weight, death rate, and behavior were observed and recorded daily for one week. After 7 days, bone marrow and blood samples were collected from the mice and lysed using 8% Triton X-100 buffer. The lysates were stored at −20 °C until testing. The activity assays for CTSC and NSPs were performed as described above. The mice were anesthetized and the tissues were taken for H&E staining.

NE [2] = assay: NSPs activity in U937 cells after 5 days of treatment, NE; type: cell-based, human; details: U937, 10 μM
Description: U937 cells in the logarithmic growth phase were collected and equally divided into six portions. Four of these portions were treated with DMSO solutions of the test compound at varying concentrations to achieve final concentrations of 1.25, 2.5, 5, and 10 μM, respectively. An equal volume of DMSO was added to one portion as a blank control, while another portion treated with a DMSO solution of AZD7986 served as a positive control. The cells were cultured under standard U937 conditions for 5 consecutive days, with daily medium changes and fresh compound treatments administered using the same protocol. Following 5 days of treatment, cells were harvested, washed twice thoroughly with phosphate-buffered saline, and lysed in phosphate-buffered saline containing 1% Triton X-100. The lysates were centrifuged to collect the supernatant, and protein concentrations were determined as previously described to ensure equal total protein loading across all samples. The prepared samples were stored at −20 °C until further analysis. Different assay buffers were prepared for diluting samples and measuring the activities of specific NSPs: a buffer containing 50 mM Tris and 750 mM NaCl (pH 7.4) was used for NE and PR3; a buffer containing 50 mM Tris, 750 mM NaCl, 5 mM EDTA (pH 7.4) was used for Cat G; and a buffer containing 25 mM MES, 50 mM NaCl, 5 mM DTT (pH 6.0) was used for CTSC. […]

[3] = test system: TNF-α, IL-6, IL-1β, MCP-1, CXCL2 in RAW 264.7 cells; assay: LPS-induced cytokine and chemokine secretion, ELISA; type: cell-based, mouse; details: LPS-stimulated RAW 264.7 cells, 24 h, concentration-dependent
Description: RAW264.7 cells in the logarithmic growth phase were counted and diluted to a concentration of 6 × 10^4 cells/mL. After thorough mixing, the cell suspension was seeded into 48-well plates and incubated in a humidified atmosphere containing 5% CO2 at 37 °C. Following 24 h of incubation, the culture medium was carefully aspirated, and the cells were gently washed with phosphate-buffered saline. […] After 1 h of pre-incubation, 30 μL of lipopolysaccharide (1 μg/mL) was added to each well except for the blank control group, which remained unstimulated. Following an additional 24 h incubation under identical conditions, the culture supernatants were collected to assess NO production using the Griess reagent assay. Concentrations of pro-inflammatory cytokines and chemokines were determined using commercially available ELISA kits according to the protocols.

PR3 = molecular target: T1, PR3 (Homo sapiens, UniProt P24158); assay: Recombinant NSPs isolated enzyme assay, PR3; type: biochemical; details: read-out: PR3 Enz (IC50: μM)
T1 construct: purchased MedChemExpress
Excerpt: The protocol for evaluating the inhibitory potency of compounds against other cathepsins referred to the CTSC activity assay. Recombinant human CTSB, CTSL, CTSS and CTSK for testing were also purchased from R&D Systems Biotechnology Company. Recombinant human Cat G, NE, and PR3 For testing were purchased from MedChemExpress. A multi-functional microplate reader was used to measure the absorption of Z-Leu-Arg-AMC at excitation/emission wavelengths of 380/460 nm to assess the activity changes of CTSB and CTSL, while the absorption of MCA-Arg-Pro-Lys-Pro-Val-Glu-NVAL-Trp-Arg-Lys(DNP)-NH2 at 320/405 nm was measured to evaluate the activity changes of CTSS and CTSK. Different assay buffers were prepared for diluting samples and measuring the activities of specific NSPs: a buffer containing 50 mM Tris and 750 mM NaCl (pH 7.4) was used for NE and PR3; a buffer containing 50 mM Tris, 750 mM NaCl, 5 mM EDTA (pH 7.4) was used for Cat G; and a buffer containing 25 mM MES, 50 mM NaCl, 5 mM DTT (pH 6.0) was used for CTSC. Synthetic substrates were employed to assess the activities of NSPs and CTSC: H-Gly-Arg-AMC for CTSC, N-MeSuc-Ala-Ala-Pro-Val-pNA for NE, aminobenzoyl-Val-Ala-Asp-Cys-Ala-Asp-Gln-ethylenediamine 2,4-dinitrophenyl for PR3, and N-Suc-Ala-Ala-Pro-Phe-pNA for Cat G. Each group of tests was independently repeated at least 3 times, and IC50 values were calculated using SPSS 10.0.

T1 sequence (P24158 28-256): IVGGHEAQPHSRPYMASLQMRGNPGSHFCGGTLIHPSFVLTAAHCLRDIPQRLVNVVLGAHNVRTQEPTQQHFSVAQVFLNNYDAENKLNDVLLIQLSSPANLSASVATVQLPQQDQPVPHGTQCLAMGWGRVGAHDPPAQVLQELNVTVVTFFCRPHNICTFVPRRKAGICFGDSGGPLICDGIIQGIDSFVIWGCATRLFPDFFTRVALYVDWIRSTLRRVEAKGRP

C[C@@H]1C[C@H]2OC(=O)[C@@]3(C)CCC[C@@](C)([C@@H]23)[C@@]1(O)CCc1ccoc1 [Marrubiin, marrubiin]
remaining activity rate of NE (NE [1]; blood): ~9.9% | remaining activity rate of NE (NE [1]; bone marrow): ~20.9% | NE activity, % of DMSO group (NE [2]): 8.2% | relative levels of TNF-α, IL-6, IL-1β, MCP-1, CXCL2 [3]: reduced to varying degrees | IC50 (PR3): > 10 µM

Reference: article PMC12610274, “Identification of Marrubiin as a Cathepsin C Inhibitor for Treating Rheumatoid Arthritis” (Molecules, 2025)
